Data: patent US20130149331A1, “RHAMNOSE AND FORSSMAN CONJUGATED IMMUNOGENIC AGENTS” (priority 2011, published 2013)

Tested on: anti-Rha antibodies in normal human serum
Experiment: Competitive ELISA assay with free monosaccharides, BSA-R1 immobilized
Format: binding
Conditions: free monosaccharide 200 mM to 12.5 mM; human serum 1:2000; anti-human IgG detection
Method: Competitive ELISA assay. To further verify the specific antibody against Rha epitopes, inhibition ELISA was performed by immobilizing Rha conjugated BSA (BSA-R1) (10 μg ml^−1) on the 96-well plate, and free D-mannose (Man), D-glucose (Glc), N-Acetyl-Dglucosamine (GlcNAc), D-xylose (Xyl), L-fucose (Fuc), N-Acetyl-D-galactosamine (GalNAc), D-galactose (Gal) and L-rhamnose (Rha) were used as competing antigens (2-fold dilutions from 200 mM to 12.5 mM). After coated with BSA-R1 at 4° C. overnight, the solution was depleted and washed by PBST for three times (three minutes each time). Then, the plate was blocked with 5% (w/v) non-fat milk (PBST) in RT for 1.5 h, and rinsed by PBST once. Normal human serum diluted (1:2000) previously, containing different free monosaccharide at different concentration, was added into the 96-well plate with 0.1 mL per well. After 2 h incubation, the plate was rinsed by PBST 3 times. Then 0.1 mL Horseradish Peroxidase (HRP)-conjugated antihuman IgG antibody (1:3000) was added into each well and stayed in RT for 1 h. Finally, after the plates were washed, enzyme substrate tetramethylbenzidine (TMB) was added and allowed to react for 10-20 min before the enzymatic reaction was terminated by adding 1N HCl and the absorbance was read at wavelength of 450 nm in a FlexStation® 3 Microplate Reader (Molecular devices).

C[C@H](O)[C@H](O)[C@@H](O)[C@@H](O)C=O [Rha, L-rhamnose]
competition for antibodies in human serum: pulled down the antibodies
